Test results as given in PMC8799717, “Pharmacological targeting PIKfyve and tubulin as an effective treatment strategy for double-hit lymphoma” (Cell Death Discovery, 2022).

How the values were obtained:
Assay in all cases: biochemical
Design in all cases: KINOMEscan active-site-directed competition binding panel, 468 kinases, percent of DMSO control at 1 uM
Settings in all cases: KINOMEscan binding, percent of DMSO control; read-out: Ctrl%
LRRK2(G2019S) = LRRK2(G2019S) (Homo sapiens, UniProt Q5S007, G2019S)
ICK = biological target: T1, ICK (Homo sapiens, UniProt Q9UPZ9)
T1 construct: gene CILK1

FAK = biological target: T2, FAK (Homo sapiens, UniProt Q05397)
T2 construct: gene PTK2

NEK10 = NEK10 (Homo sapiens, UniProt Q6ZWH5)
MAP4K5 = MAP4K5 (Homo sapiens, UniProt Q9Y4K4)
CDK7 = CDK7 (Homo sapiens, UniProt P50613)
CLK1 = CLK1 (Homo sapiens, UniProt P49759)
TLK2 = TLK2 (Homo sapiens, UniProt Q86UE8)
RIPK4 = RIPK4 (Homo sapiens, UniProt P57078)
PIK3CD = PIK3CD (Homo sapiens, UniProt O00329)
MST3 = biological target: T3, MST3 (Homo sapiens, UniProt Q9Y6E0)
T3 construct: gene STK24

MST1R = MST1R (Homo sapiens, UniProt Q04912)
PAK3 = PAK3 (Homo sapiens, UniProt O75914)
GSK3A = GSK3A (Homo sapiens, UniProt P49840)
NDR1 = biological target: T4, NDR1 (Homo sapiens, UniProt Q15208)
T4 construct: gene STK38

FLT3(N841I) = FLT3(N841I) (Homo sapiens, UniProt P36888, N841I)
FLT3(ITD,F691L) = FLT3(ITD,F691L) (Homo sapiens, UniProt P36888, F691L/ITD)
ROS1 = ROS1 (Homo sapiens, UniProt P08922)
CDK5 = CDK5 (Homo sapiens, UniProt Q00535)
EGFR(L747-T751del,Sins) = EGFR(L747-T751del,Sins) (Homo sapiens, UniProt P00533, DEL747-750/T751S)
MEK6 = biological target: T5, MEK6 (Homo sapiens, UniProt P52564)
T5 construct: gene MAP2K6

HPK1 = biological target: T6, HPK1 (Homo sapiens, UniProt Q92918)
T6 construct: gene MAP4K1

[1] = biological target: T7, JAK3(JH1domain-catalytic) (Homo sapiens, UniProt P52333)
T7 construct: JH1domain-catalytic

NEK1 = NEK1 (Homo sapiens, UniProt Q96PY6)

NEK10, sequence (Q6ZWH5 whole entry): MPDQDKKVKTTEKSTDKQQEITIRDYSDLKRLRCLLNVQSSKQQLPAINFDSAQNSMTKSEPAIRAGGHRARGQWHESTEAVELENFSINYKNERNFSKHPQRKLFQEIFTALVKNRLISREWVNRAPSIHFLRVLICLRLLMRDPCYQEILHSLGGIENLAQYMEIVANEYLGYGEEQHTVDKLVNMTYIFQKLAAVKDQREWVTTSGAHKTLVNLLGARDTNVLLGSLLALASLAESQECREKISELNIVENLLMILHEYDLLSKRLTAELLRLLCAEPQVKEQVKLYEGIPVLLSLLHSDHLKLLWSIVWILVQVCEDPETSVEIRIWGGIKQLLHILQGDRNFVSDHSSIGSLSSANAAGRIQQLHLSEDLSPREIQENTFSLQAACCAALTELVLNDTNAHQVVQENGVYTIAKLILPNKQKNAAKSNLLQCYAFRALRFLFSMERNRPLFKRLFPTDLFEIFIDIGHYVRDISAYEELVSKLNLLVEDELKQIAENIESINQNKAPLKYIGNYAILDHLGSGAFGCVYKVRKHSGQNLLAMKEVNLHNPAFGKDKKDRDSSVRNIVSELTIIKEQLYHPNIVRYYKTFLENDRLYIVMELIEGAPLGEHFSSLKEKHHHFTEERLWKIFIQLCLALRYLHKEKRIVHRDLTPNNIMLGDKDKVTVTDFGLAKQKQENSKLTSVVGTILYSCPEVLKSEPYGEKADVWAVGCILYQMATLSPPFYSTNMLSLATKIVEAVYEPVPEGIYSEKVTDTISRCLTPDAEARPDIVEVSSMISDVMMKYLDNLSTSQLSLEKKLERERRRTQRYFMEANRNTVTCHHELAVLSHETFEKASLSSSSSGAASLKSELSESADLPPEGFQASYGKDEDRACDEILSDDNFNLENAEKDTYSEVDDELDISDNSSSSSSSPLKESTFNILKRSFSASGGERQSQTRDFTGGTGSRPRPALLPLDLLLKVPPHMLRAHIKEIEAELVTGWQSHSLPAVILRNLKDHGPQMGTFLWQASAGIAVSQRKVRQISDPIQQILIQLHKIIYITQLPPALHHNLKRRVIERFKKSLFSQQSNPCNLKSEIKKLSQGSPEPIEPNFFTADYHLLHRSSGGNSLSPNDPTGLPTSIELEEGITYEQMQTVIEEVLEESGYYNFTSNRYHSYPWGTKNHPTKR
GSK3A, sequence (P49840 whole entry): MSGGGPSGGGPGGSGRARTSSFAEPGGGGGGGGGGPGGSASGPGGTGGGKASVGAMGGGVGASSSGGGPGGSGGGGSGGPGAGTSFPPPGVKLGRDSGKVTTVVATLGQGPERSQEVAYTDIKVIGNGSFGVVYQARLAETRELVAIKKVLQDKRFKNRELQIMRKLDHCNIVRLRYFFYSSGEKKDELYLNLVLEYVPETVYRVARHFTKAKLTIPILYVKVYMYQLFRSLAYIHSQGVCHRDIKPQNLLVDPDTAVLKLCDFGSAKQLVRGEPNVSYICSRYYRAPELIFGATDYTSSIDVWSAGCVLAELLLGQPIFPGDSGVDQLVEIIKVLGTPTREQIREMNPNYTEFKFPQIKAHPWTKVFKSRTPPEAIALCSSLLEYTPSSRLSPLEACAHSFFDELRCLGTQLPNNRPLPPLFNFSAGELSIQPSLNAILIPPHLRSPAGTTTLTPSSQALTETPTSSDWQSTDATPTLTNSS
T2 sequence (Q05397 whole entry): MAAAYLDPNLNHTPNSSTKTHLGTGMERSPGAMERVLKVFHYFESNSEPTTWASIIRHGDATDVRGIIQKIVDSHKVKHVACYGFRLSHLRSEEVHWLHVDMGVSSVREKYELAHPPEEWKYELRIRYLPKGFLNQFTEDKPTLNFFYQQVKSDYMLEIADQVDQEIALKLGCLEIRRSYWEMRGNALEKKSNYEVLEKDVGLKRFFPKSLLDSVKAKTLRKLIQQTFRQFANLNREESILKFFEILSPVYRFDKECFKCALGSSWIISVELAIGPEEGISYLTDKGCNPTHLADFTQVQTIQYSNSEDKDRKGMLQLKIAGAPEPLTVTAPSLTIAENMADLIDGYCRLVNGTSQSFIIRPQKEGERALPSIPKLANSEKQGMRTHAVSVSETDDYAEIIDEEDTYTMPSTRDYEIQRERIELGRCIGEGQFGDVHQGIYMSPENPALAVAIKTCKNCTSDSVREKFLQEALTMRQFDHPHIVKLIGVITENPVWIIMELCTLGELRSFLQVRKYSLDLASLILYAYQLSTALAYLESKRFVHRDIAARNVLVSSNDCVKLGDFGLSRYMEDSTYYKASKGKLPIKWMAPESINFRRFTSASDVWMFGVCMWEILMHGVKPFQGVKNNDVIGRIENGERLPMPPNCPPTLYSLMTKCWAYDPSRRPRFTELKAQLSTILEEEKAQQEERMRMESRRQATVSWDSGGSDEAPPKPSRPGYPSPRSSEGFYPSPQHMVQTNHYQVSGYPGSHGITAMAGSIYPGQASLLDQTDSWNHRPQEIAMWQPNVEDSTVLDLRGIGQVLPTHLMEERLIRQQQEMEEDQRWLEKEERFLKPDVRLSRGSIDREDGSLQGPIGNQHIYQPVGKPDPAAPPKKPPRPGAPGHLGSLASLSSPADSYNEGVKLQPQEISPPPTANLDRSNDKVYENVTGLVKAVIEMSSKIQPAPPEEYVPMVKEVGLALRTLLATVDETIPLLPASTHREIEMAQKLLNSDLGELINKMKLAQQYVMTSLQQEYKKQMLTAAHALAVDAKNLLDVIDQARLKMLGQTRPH
PAK3, sequence (O75914 whole entry): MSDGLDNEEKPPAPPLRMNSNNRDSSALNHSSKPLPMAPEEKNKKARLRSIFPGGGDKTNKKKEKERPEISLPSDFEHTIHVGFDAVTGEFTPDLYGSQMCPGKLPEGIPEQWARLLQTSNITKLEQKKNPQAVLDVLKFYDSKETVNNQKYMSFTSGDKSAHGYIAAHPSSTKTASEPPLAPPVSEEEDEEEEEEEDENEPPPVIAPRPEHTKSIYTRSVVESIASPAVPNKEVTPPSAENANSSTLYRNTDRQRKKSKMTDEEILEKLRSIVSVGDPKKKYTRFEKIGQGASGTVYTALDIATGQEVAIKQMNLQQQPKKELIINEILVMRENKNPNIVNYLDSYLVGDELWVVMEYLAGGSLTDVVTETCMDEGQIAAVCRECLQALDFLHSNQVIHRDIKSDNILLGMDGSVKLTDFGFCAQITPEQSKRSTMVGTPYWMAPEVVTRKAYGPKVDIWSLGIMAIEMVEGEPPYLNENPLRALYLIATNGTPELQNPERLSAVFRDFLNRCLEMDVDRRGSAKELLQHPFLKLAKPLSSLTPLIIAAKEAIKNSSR
T3 sequence (Q9Y6E0 whole entry): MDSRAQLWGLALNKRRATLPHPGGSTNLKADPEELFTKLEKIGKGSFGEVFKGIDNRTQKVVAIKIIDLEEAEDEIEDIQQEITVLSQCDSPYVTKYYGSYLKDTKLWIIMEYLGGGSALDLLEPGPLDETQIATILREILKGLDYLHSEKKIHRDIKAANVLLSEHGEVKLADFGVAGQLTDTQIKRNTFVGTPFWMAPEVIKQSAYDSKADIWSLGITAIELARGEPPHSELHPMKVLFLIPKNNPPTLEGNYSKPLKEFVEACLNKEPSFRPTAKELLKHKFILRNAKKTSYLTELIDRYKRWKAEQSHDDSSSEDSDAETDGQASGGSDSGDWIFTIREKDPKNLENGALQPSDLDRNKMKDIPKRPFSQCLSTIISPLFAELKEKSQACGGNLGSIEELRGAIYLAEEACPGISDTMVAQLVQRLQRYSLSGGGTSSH
T6 sequence (Q92918 whole entry): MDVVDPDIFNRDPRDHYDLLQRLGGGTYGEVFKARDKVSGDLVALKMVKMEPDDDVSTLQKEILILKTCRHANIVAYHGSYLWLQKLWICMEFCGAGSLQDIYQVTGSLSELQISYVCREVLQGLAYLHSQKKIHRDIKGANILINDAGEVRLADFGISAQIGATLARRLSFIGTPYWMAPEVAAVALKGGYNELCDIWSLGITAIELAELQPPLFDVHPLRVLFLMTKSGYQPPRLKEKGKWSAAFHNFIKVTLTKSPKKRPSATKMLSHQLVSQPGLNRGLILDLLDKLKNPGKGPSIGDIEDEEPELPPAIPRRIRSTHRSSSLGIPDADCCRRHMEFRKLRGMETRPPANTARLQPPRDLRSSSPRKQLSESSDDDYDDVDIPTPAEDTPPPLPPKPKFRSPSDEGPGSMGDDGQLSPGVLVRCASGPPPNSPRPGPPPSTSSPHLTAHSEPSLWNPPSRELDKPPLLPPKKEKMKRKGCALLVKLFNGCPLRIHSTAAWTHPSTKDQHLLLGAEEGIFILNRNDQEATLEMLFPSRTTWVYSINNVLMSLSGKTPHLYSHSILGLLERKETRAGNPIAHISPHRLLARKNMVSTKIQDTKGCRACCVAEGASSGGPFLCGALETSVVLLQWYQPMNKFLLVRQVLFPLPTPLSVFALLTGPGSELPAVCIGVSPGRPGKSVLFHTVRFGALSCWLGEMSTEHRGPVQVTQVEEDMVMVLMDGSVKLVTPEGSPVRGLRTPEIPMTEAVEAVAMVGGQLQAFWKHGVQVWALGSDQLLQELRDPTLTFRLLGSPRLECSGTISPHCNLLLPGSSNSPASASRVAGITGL
CLK1, sequence (P49759 whole entry): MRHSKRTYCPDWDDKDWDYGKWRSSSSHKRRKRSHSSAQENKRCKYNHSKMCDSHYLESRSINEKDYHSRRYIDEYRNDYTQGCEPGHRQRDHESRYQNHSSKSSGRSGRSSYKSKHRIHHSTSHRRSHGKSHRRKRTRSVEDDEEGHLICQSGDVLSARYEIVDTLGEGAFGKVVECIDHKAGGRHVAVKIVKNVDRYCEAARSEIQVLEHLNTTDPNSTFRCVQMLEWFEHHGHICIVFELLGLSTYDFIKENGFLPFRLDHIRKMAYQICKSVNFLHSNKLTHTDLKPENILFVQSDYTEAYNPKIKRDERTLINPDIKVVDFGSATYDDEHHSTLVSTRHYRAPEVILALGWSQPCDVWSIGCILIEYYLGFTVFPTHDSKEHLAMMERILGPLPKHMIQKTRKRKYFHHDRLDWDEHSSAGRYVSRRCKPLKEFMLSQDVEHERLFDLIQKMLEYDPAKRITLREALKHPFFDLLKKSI

Cc1ccc(NC(=O)c2cccc(C(F)(F)F)c2)cc1Nc1cc(-c2cccnc2)nc2[nH]ccc12 [HZX-02-059] gave a remaining binding at 1 µM (LRRK2(G2019S)) of 92%, a remaining binding at 1 µM (ICK) of 77% and a remaining binding at 1 µM (FAK) of 98%. The remaining binding at 1 µM (NEK10) was 100%, the remaining binding at 1 µM (MAP4K5) was 73% and the remaining binding at 1 µM (CDK7) was 69%. The remaining binding at 1 µM (CLK1) was 96%, the remaining binding at 1 µM (TLK2) was 89% and the remaining binding at 1 µM (RIPK4) was 75%. The remaining binding at 1 µM (PIK3CD) was 97%, the remaining binding at 1 µM (MST3) was 100% and the remaining binding at 1 µM (MST1R) was 89%. It also gave a remaining binding at 1 µM (PAK3) of 27%, a remaining binding at 1 µM (GSK3A) of 98% and a remaining binding at 1 µM (NDR1) of 100%. For the same molecule, the remaining binding at 1 µM (FLT3(N841I)) was 88%, the remaining binding at 1 µM (FLT3(ITD,F691L)) was 100% and the remaining binding at 1 µM (ROS1) was 72%. For the same molecule, the remaining binding at 1 µM (CDK5) was 100%, the remaining binding at 1 µM (EGFR(L747-T751del,Sins)) was 77% and the remaining binding at 1 µM (MEK6) was 88%. It also gave a remaining binding at 1 µM (HPK1) of 72%, a remaining binding at 1 µM [1] of 100% and a remaining binding at 1 µM (NEK1) of 78%.
